The target of data set [1] is Dihydroorotate dehydrogenase (quinone), mitochondrial (Homo sapiens, UniProt Q02127). Description: Inhibition of human dihydroorotate dehydrogenase.
Data set [2] can be described thus: Half life in rat at 1 mg/kg, iv. It is filed as ADME, organism-based. Also on record: dose 1 mg/kg, route intravenous. To be noted: in vivo.
For data set [3], the target named is Dihydroorotate dehydrogenase (quinone), mitochondrial (Rattus norvegicus, UniProt Q63707). Description: Inhibition of rat dihydroorotate dehydrogenase.
Another data set has as its system PBMC. Kind of data set: Antiproliferative activity against PHA-stimulated human PBMC assessed as inhibition of […] after 72 hrs by BrdU-ELISA assay. It counts as functional, cell-based.
Data set [4] is described as follows: Metabolic stability in rat microsomes assessed as compound degradation at 5 uM after 30 mins. It counts as ADME, Microsome. The conditions noted are these: read-out: Drug metabolism.
A short description of data set [5]: Metabolic stability in human microsomes assessed as compound degradation at 5 uM after 30 mins. It counts as ADME, Microsome. To be noted: read-out: Drug metabolism.
In data set [6] the test system is Rattus norvegicus. Kind of data set: Antiinflammatory activity in rat Freund's adjuvant induced-arthritis model assessed as inhibition of paw edema at 10 mg/kg qd administered 10 days post challenge for 10 consecutive days. It counts as functional. To be noted: 240 h.
Data set [7] in a line: Half life in human plasma. It is filed as ADME, organism-based.
Data set [8] concerns Rattus norvegicus. Description: Antiinflammatory activity in rat Freund's adjuvant induced-arthritis model assessed as inhibition of paw edema administered 10 days post challenge once daily for 10 days. It is filed as functional. To be noted: 240 h.

23 compounds from ChEMBL document CHEMBL1926525 (Bioorg Med Chem Lett, 2011) can be followed below.

Usually IC50 stands for the midpoint of a concentration-inhibition curve. As a reminder, the half-life is how long it takes for the measured level to halve. Higher therefore signals slow decline. One may read the inhibition in vivo as the change of the read-out against control, counted positive when it falls. One may read the ED50 as the midpoint of the dose-response relation.

Dihydroorotate dehydrogenase (quinone), mitochondrial (Homo sapiens, UniProt Q02127), sequence (Q02127 whole entry): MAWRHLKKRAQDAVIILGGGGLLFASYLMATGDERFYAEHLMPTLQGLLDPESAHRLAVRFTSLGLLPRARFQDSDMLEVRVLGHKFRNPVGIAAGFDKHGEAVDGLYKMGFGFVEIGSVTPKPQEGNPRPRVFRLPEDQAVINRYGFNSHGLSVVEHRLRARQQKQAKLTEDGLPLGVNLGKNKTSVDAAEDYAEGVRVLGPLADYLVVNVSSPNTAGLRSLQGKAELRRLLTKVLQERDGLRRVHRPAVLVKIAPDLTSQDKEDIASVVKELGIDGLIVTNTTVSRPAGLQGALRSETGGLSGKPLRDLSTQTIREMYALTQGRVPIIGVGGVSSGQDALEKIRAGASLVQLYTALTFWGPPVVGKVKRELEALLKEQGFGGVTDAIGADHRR
Dihydroorotate dehydrogenase (quinone), mitochondrial (Rattus norvegicus, UniProt Q63707), sequence (Q63707 whole entry): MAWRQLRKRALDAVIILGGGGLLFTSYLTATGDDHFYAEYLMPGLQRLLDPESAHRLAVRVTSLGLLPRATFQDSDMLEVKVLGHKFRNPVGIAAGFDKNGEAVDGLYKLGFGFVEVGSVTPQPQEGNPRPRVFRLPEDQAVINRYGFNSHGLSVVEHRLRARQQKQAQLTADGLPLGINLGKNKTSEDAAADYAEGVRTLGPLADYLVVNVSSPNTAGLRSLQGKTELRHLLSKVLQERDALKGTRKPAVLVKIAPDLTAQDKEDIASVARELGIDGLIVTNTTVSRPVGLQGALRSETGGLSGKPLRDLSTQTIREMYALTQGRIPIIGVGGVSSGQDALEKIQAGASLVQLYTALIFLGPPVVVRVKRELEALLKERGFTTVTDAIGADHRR

For the compound `CC/C(O)=C(\C#N)C(=O)Nc1ccc(OS(=O)(=O)C(F)(F)F)cc1`, the midpoint of inhibition in [1], the IC50, lay at 150 nM. The compound also had a half-life in data set [2] of 8 h. On the same counts, the results for `CC/C(O)=C(\C#N)C(=O)Nc1ccc(OS(=O)(=O)C(F)(F)F)c(C(=O)OC)c1` are 93 nM and 2 h. `CC/C(O)=C(\C#N)C(=O)Nc1ccc(-c2ccccc2)c(C(=O)OC)c1`: half-maximal inhibition in [1] (IC50) was put at 73 nM. As to `CC/C(O)=C(\C#N)C(=O)Nc1ccc(-c2ccc(F)cc2)c(C(=O)OC)c1`, the IC50 in data set [1] turned out to be 110 nM; in [3], 350 nM; with PBMC it was 2000 nM. Further, the half-life was 0.9 h in [2] and 336 h in data set [7]. In addition, the metabolised at 0.5 h, 5 µM in data set [4] worked out at 19%; in [5], 17%. In the data set on Rattus norvegicus [6], the inhibition in vivo at 10 mg/kg was 49%. For `CC/C(O)=C(\C#N)C(=O)Nc1ccc(-c2ccccc2Cl)c(C(=O)OC)c1`, in [1], the concentration for half-maximal inhibition (IC50) is 52 nM.

For `CC/C(O)=C(\C#N)C(=O)Nc1ccc(-c2cccc(Cl)c2)c(C(=O)OC)c1`, the IC50 in data set [1] turned out to be 31 nM; in the data set with PBMC, 34000 nM. With `CC/C(O)=C(\C#N)C(=O)Nc1ccc(-c2ccc(Cl)cc2)c(C(=O)OC)c1`, the IC50 in data set [1] was found to be 45 nM; with PBMC it was 13000 nM. For the compound `CC/C(O)=C(\C#N)C(=O)Nc1ccc(-c2cccc(OC(F)(F)F)c2)c(C(=O)OC)c1`, the IC50 in data set [1] is 27 nM; in the data set on PBMC, 37000 nM. Consider `CC/C(O)=C(\C#N)C(=O)Nc1ccc(-c2cccc(F)c2)c(C(=O)OC)c1`, for which, in data set [1], the IC50 was found to be 198 nM.

Consider `CC/C(O)=C(\C#N)C(=O)Nc1ccc(-c2ccc(F)cc2F)c(C(=O)OC)c1`, for which the IC50 is 31 nM in data set [1] and 6000 nM in the data set on PBMC. For the compound `CC/C(O)=C(\C#N)C(=O)Nc1ccc(-c2cccnc2)c(C(=O)OC)c1`, the midpoint of inhibition in data set [1], the IC50, lay at 40 nM. The same measure, in the same setting: under `CC/C(O)=C(\C#N)C(=O)Nc1ccc(-c2ccc(F)cc2C)c(C(=O)OC)c1` stands 49 nM; under `CC/C(O)=C(\C#N)C(=O)Nc1ccc(-c2ccc(F)nc2)c(C(=O)OC)c1`, 150 nM; under `CC/C(O)=C(\C#N)C(=O)Nc1ccc(-c2ccc(F)c(F)c2)c(C(=O)OC)c1`, 97 nM.

On to `CC/C(O)=C(\C#N)C(=O)Nc1ccc(-c2cc(F)c(F)c(F)c2)c(C(=O)OC)c1`, for which the IC50 in data set [1] worked out at 137 nM; with PBMC it was 19000 nM. Compound `CC/C(O)=C(\C#N)C(=O)Nc1ccc(-c2ccc(F)cc2OC)c(C(=O)OC)c1` came in with an IC50 in [1] of 66 nM. In data set [1], `CCOc1cccc(-c2ccc(NC(=O)/C(C#N)=C(\O)CC)cc2C(=O)OC)c1` registered an IC50 of 59 nM. `CC/C(O)=C(\C#N)C(=O)Nc1ccc(-c2ccc3c(c2)OCO3)c(C(=O)OC)c1`: the IC50 in data set [1] was determined as 76 nM; with PBMC, 18500 nM. As to `CC/C(O)=C(\C#N)C(=O)Nc1ccc(-c2cccc(OC)c2)c(C(=O)OC)c1`, half-maximal inhibition in data set [1] (IC50) was put at 26 nM.

For the compound `CC/C(O)=C(\C#N)C(=O)Nc1ccc(-c2ccc3c(c2)OCCO3)c(C(=O)OC)c1`, half-maximal inhibition in data set [1] (IC50) was put at 66 nM.

`CC/C(O)=C(\C#N)C(=O)Nc1ccc(-c2cccc(OC(F)F)c2)c(C(=O)OC)c1` showed a concentration for half-maximal inhibition (IC50) in data set [1] of 34 nM. Still for that read-out and setting: under `CC/C(O)=C(\C#N)C(=O)Nc1ccc(-c2cccc(OC3CCC3)c2)c(C(=O)OC)c1` stands 31 nM. In turn, `C/C(O)=C(\C#N)C(=O)Nc1ccc(C(F)(F)F)cc1` [TERIFLUNOMIDE] gave a half-life in data set [2] of 14.1 h. Besides, the IC50 in the data set with PBMC stood at 46000 nM. The metabolised at 0.5 h, 5 µM was determined as 0% in data set [4] and 3% in data set [5]. In the data set on Rattus norvegicus [8], the ED50 turned out to be 2.88 mg/kg.
